The values that follow come from patent US11497756B2, “Treatment regimen for cancers that are insensitive to BCL-2 inhibitors using the MCL-1 inhibitor alvocidib” (Sumitomo Pharma Oncology, Inc., priority 2017, dated 2022).

For data set [1], the system named is OCI-AML3 cells. Description: Sensitivity of OCI-AML3 cells to Venetoclax/ABT-199. The class given is cell-based. Particulars: Homo sapiens, OCI-AML-3.
The test system of data set [2] is MCL-1 expression in MV-4-11 cells. Put plainly: MCL-1 protein expression in MV-4-11 cells treated in vitro. The class given is cell-based.
Procedure: MV-4-11 cells were treated with alvocidib in vitro, harvested and analyzed to probe for changes relative to controls. Additionally, other exemplary CDK9 inhibitors (i.e., palbociclib and dinaciclib) were evaluated, along with alvocidib.
For data set [3], the system named is OCI-AML3 cells. Put plainly: In vivo tumor growth, immune deficient mice injected with OCI-AML3 cells. The settings on record: 2.5 mg/kg intraperitoneal, once a day for 21 days, by day 21, FIG. 3. The procedure: Alvocidib was used alone to test in vivo activity in OCI-AML3 cells. […] To test the in vivo activity, immune deficient mice injected with OCI-AML3 cells were treated with 2.5 mg/kg of alvocidib via intraperitoneal injection or 100 mg/kg of Venetoclax/ABT-199 per os (i.e., oral administration). Each treatment (i.e., alvocidib and Venetoclax/ABT-199) was administered once a day for 21 days.

Data set [4] concerns MCL-1 expression in OCI-AML3 cells. Put plainly: MCL-1 expression in OCI-AML3 cells in vitro. Particulars: multiple time points after treatment, FIG. 4. The data set is classed as cell-based. From the text: MCL-1 expression was decreased in OCI-AML3 cells at multiple time points following treatment with alvocidib (FIG. 4).
The next data set has as its system HEL cells. Description: Cell viability (CellTiter-Glo) in HEL erythroleukemia cells. The class given is cell-based. The settings on record: 72 hours, compared to Venetoclax, FIG. 5. As to the method: To assess the effects of alvocidib or Venetoclax treatment on leukemic cells, the erythroleukima cell line, HEL, was cultured in RPMI media supplemented with 10% FBS and penicillin/streptomycin. Cell viability was assessed in treated cells using the CellTiter-Glo reagent (Promega), according to manufacturer protocol. Cells were treated in 96-well plates for 72 hours, before being analyzed in a luminescence compatible plate reader. Curve fitting and analysis was performed using Graphpad Prism software.

A further data set concerns OPM2 cells. Put plainly: Cell viability (CellTiter-Glo) in OPM2 multiple myeloma cells. The class given is cell-based. Particulars: 72 hours, compared to Venetoclax, FIG. 6. As to the method: To assess the effects of alvocidib or Venetoclax treatment on multiple myeloma cells, OPM2 cells were cultured in RPMI media supplemented with 10% FBS and penicillin/streptomycin. Cell viability was assessed in treated cells using the CellTiter-Glo reagent (Promega), according to manufacturer protocol. Cells were treated in 96-well plates for 72 hours, before being analyzed in a luminescence compatible plate reader. Curve fitting and analysis was performed using Graphpad Prism software.

The conditions of data set [5]: in vivo; cited from earlier work.

`CC1(C)CCC(CN2CCN(c3ccc(C(=O)NS(=O)(=O)c4ccc(NCC5CCOCC5)c([N+](=O)[O-])c4)c(Oc4cnc5[nH]ccc5c4)c3)CC2)=C(c2ccc(Cl)cc2)C1` [Venetoclax]: the concentration for a half-maximal effect (EC50) (usually the concentration needed to bring the measured effect to its halfway point) with OCI-AML3 cells [1] stood at 2.33 µM.

Turning to `CN1CC[C@H](c2c(O)cc(O)c3c(=O)cc(-c4ccccc4Cl)oc23)[C@H](O)C1` [alvocidib], the MCL-1 expression entry in data set [2] (24 hour treatment, FIG. 2) is “decreased MCL-1 expression”; in data set [4] it was “decreased”. Moreover, the “impact on MCL-1 protein levels compared with the other CDK9 inhibitors” value in data set [2] (24 hour treatment, FIG. 2) is given as “strongest impact on MCL-1 protein levels”. The “MCL-1 expression relative to controls” value in data set [2] (alvocidib 0-8 μM, FIG. 1) was “decreases MCL-1 expression in MV-4-11 in a dose dependent manner”. Also, the “reduction in tumor growth” value in the data set on OCI-AML3 cells [3] was 50%. Also, the cell viability result with HEL cells and with OPM2 cells was “inhibition of cell viability” throughout.

In the case of `CC1(C)CCC(c2ccc(Cl)cc2)=C(CN2CCN(c3ccc(C(=O)NS(=O)(=O)c4ccc(N[C@H](CCN5CCOCC5)CSc5ccccc5)c(S(=O)(=O)C(F)(F)F)c4)cc3)CC2)C1` [navitoclax], the toxicity result in data set [5] is given as “toxic due to thrombocytopenia”.
